# According to PMC7031696 (Cell chemical biology, 2019):
# pIC50: −log10 of the molar value. Entries after “also recorded” stand apart in the source; their conditions may differ. Like-named read-outs stand apart in the source and are kept apart here.
# Assays:
# [1] = system: Plasmodium falciparum 3D7-A10 parasites; test: Stage specificity assay (8-h exposure of synchronized stages, IC50^8h); type: cell-based; settings: for pIC50: Plasmodium falciparum
# [2] = system: asynchronous 3D7-A10 parasite cultures; test: Standard 72-h exposure asexual blood stage susceptibility assay (IC50^72h); type: cell-based, Plasmodium falciparum; settings: Plasmodium falciparum, 3D7, 72 h, read-out: Overall (72hr assay) Mean IC50 (IC50^72h)
# [3] = system: 3D7-MR4 trophozoite parasite-infected RBCs; test: Metabolomic profiling (hydrophilic metabolite changes, UHPLC-MS); type: cell-based, Plasmodium falciparum
# [4] = 1.5 h, 500 μM, pH 7.4
# [5] = physchem; settings: pH 7.4, aqueous buffer, kinetic from dmso stock
# [6] = 10 × IC50^72h, 2.5 hr, trophozoites
structure (smiles),measurement,setting,value
"Clc1ccc2c(N3CCN(CCCN4CCN(c5ccnc6cc(Cl)ccc56)CC4)CC3)ccnc2c1 [Piperaquine, reference compound]",Ratio lowest IC50 8hr/IC50 72hr,[1]; 3D7-A10,1.7
same,overall activity profile (stages on which active),[1]; 8-h exposures,activity on all stages
same,pIC50,"[1]; 3D7, read-out: Early rings Mean IC50 (IC50^8h), 8-h exposure 0–8 hr, 3D7-A10, survival at 60 h",7.58
same,pIC50,"[1]; 3D7, read-out: Early trophozoites Mean IC50 (IC50^8h), 8-h exposure 16–24 hr, 3D7-A10, survival at 60 h",7.56
same,pIC50,"[1]; 3D7, read-out: Late rings Mean IC50 (IC50^8h), 8-h exposure 8–16 hr, 3D7-A10, survival at 60 h",7.33
same,pIC50,"[1]; 3D7, read-out: Late trophozoites Mean IC50 (IC50^8h), 8-h exposure 24–32 hr, 3D7-A10, survival at 60 h",7.48
same,pIC50,"[1]; 3D7, read-out: Schizonts Mean IC50 (IC50^8h), 8-h exposure 32–40 hr, 3D7-A10, survival at 60 h",7.17
same,IC50^8h relative to IC50^72h value,[1]; most susceptible stages,≤ 2 fold
same,Stage of peak activity (Figure 6),[1]; period when the parasite was most susceptible (lowest IC50^8h),ring and trophozoite stages; also recorded: rings and trophozoites
same,pIC50,[2],7.81
same,changes within the set of metabolites detected (low fold change group),[3]; [6],did not induce major changes
same,"decreased levels of dCDP, dTMP, guanosine, and guanine",[3]; [6],≥ 2 fold
same,Log2(fold changes) 3-phosphoglycerate,"[3]; metabolite 3-phosphoglycerate, log2 fold change",0.1576
same,Log2(fold changes) 4-Pyridoxic acid,"[3]; metabolite 4-Pyridoxic acid, log2 fold change",0.0000
same,Log2(fold changes) 4-aminobutyrate,"[3]; metabolite 4-aminobutyrate, log2 fold change",-0.0347
same,Log2(fold changes) 4-phosphopantetheine,"[3]; metabolite 4-phosphopantetheine, log2 fold change",0.0000
same,Log2(fold changes) 4-phosphopantothenate,"[3]; metabolite 4-phosphopantothenate, log2 fold change",-0.1578
same,Log2(fold changes) 5-aminopentanoic acid,"[3]; metabolite 5-aminopentanoic acid, log2 fold change",0.0000
same,Log2(fold changes) 5-methyl-THF,"[3]; metabolite 5-methyl-THF, log2 fold change",0.0000
same,Log2(fold changes) 5-phosphoribosyl-1-pyrophosphate,"[3]; metabolite 5-phosphoribosyl-1-pyrophosphate, log2 fold change",0.2840
same,Log2(fold changes) 6-phospho-D-gluconate,"[3]; metabolite 6-phospho-D-gluconate, log2 fold change",0.0537
same,Log2(fold change) HVDD,[3]; metabolite HVDD,0.0000
same,Log2(fold change) Hydroxyisocaproic acid,[3]; metabolite Hydroxyisocaproic acid,0.0000
same,Log2(fold change) IDP,[3]; metabolite IDP,-0.0045
same,Log2(fold change) IMP,[3]; metabolite IMP,-0.1159
same,Log2(fold change) Inositol,[3]; metabolite Inositol,0.0000
same,Log2(fold change) Isopentyl-PP,[3]; metabolite Isopentyl-PP,0.0000
same,Log2(fold change) L-arginino-succinate,[3]; metabolite L-arginino-succinate,0.0000
same,Log2(fold change) LD,[3]; metabolite LD,0.0483
same,Log2(fold change) Myristoyl/tetradecanoyl-CoA,[3]; metabolite Myristoyl/tetradecanoyl-CoA,0.0000
same,Log2(fold change) N-Acetyl-L-alanine,[3]; metabolite N-Acetyl-L-alanine,-0.2552
same,Log2(fold change) N-acetyl-L-ornithine,[3]; metabolite N-acetyl-L-ornithine,-0.0188
same,Log2(fold change) N-acetyl-glucosamine-1/6-phosphate,[3]; metabolite N-acetyl-glucosamine-1/6-phosphate,-0.1206
same,Log2(fold change) N-acetyl-glutamate,[3]; metabolite N-acetyl-glutamate,-0.0276
same,Log2(fold change) N-acetyl-glutamine,[3]; metabolite N-acetyl-glutamine,0.0000
same,Log2(fold change) N-carbamoyl-L-aspartate,[3]; metabolite N-carbamoyl-L-aspartate,-0.1894
same,Log2(fold change) NAD+,[3]; metabolite NAD+,-0.0736
same,Log2(fold change) NADH,[3]; metabolite NADH,0.1619
same,Log2(fold change) NADP+,[3]; metabolite NADP+,0.0160
same,Log2(fold change) NADPH,[3]; metabolite NADPH,0.1653
same,Log2(fold change) O-acetyl-L-serine,[3]; metabolite O-acetyl-L-serine,0.0000
same,Log2(fold change) Octoluse 8/1P,[3]; metabolite Octoluse 8/1P,-0.0774
same,Log2(fold change) Octoluse Bisphosphate,[3]; metabolite Octoluse Bisphosphate,0.0393
same,Log2(fold change) PD,[3]; metabolite PD,-0.0500
same,Log2(fold change) PE,[3]; metabolite PE,0.0291
same,Log2(fold change) PEE,[3]; metabolite PEE,0.1599
same,Log2(fold change) PEEK,[3]; metabolite PEEK,0.3927
same,Log2(fold change) PVNF,[3]; metabolite PVNF,0.0618
same,Log2(fold change) Pyroglutamic acid,[3]; metabolite Pyroglutamic acid,-0.2255
same,Log2(fold change) Pyrophosphate,[3]; metabolite Pyrophosphate,0.0000
same,Log2(fold change) Ribose-5-phosphate,[3]; metabolite Ribose-5-phosphate,-0.0505
same,Log2(fold change) S-adenosyl-L-homocysteine,[3]; metabolite S-adenosyl-L-homocysteine,-0.1747
same,Log2(fold change) S-adenosyl-L-methioninamine,[3]; metabolite S-adenosyl-L-methioninamine,0.0000
same,Log2(fold change) S-adenosyl-L-methionine,[3]; metabolite S-adenosyl-L-methionine,0.0000
same,Log2(fold change) S-methyl-5'-thioadenosine,[3]; metabolite S-methyl-5'-thioadenosine,-5.54e-5
same,Log2(fold change) SD,[3]; metabolite SD,0.0815
same,Log2(fold change) SDL,[3]; metabolite SDL,0.0000
same,Log2(fold change) SID,[3]; metabolite SID,0.0000
same,Log2(fold change) Sedoheptulose bisphosphate,[3]; metabolite Sedoheptulose bisphosphate,0.2230
same,Log2(fold change) Thiamine pyrophosphate,[3]; metabolite Thiamine pyrophosphate,-0.1023
same,Log2(fold changes) UDP-D-glucose,"[3]; metabolite UDP-D-glucose, log2 fold change",-0.0097
same,Log2(fold changes) UDP-D-glucuronate,"[3]; metabolite UDP-D-glucuronate, log2 fold change",0.0081
same,Log2(fold changes) UDP-N-acetyl-glucosamine,"[3]; metabolite UDP-N-acetyl-glucosamine, log2 fold change",-0.0956
same,Log2(fold changes) UDP,"[3]; metabolite UDP, log2 fold change",-0.8655
same,Log2(fold changes) UMP,"[3]; metabolite UMP, log2 fold change",-0.2304
same,Log2(fold changes) UTP,"[3]; metabolite UTP, log2 fold change",0.0058
same,Log2(fold change) hydroxyphenylpyruvate,[3]; metabolite hydroxyphenylpyruvate,0.0000
same,Log2(fold change) hydroxyproline/Aminolevulinate,[3]; metabolite hydroxyproline/Aminolevulinate,0.0000
same,Log2(fold change) hypoxanthine,[3]; metabolite hypoxanthine,0.0000
same,Log2(fold change) indole,[3]; metabolite indole,0.0000
same,Log2(fold change) inosine,[3]; metabolite inosine,-0.3997
same,Log2(fold change) isoleucine,[3]; metabolite isoleucine,0.1103
same,Log2(fold change) lactate,[3]; metabolite lactate,-0.4255
same,Log2(fold change) leucine,[3]; metabolite leucine,-0.0845
same,Log2(fold change) lysine,[3]; metabolite lysine,0.0614
same,Log2(fold change) malate,[3]; metabolite malate,-0.0964
same,Log2(fold change) maleic acid,[3]; metabolite maleic acid,-0.0992
same,Log2(fold change) methionine,[3]; metabolite methionine,0.1002
same,Log2(fold change) myo-inositol,[3]; metabolite myo-inositol,-0.6606
same,Log2(fold change) nicotinamide mononucleotide,[3]; metabolite nicotinamide mononucleotide,-0.1524
same,Log2(fold change) nicotinate,[3]; metabolite nicotinate,-0.4222
same,Log2(fold change) ornithine,[3]; metabolite ornithine,0.0000
same,Log2(fold change) orotate,[3]; metabolite orotate,-0.5698
same,Log2(fold change) orotidine-5'-phosphate,[3]; metabolite orotidine-5'-phosphate,-0.6109
same,Log2(fold change) oxaloacetate,[3]; metabolite oxaloacetate,0.0000
same,Log2(fold change) p-aminobenzoate,[3]; metabolite p-aminobenzoate,0.0000
same,Log2(fold change) p-hydroxybenzoate,[3]; metabolite p-hydroxybenzoate,0.0000
same,Log2(fold change) pantothenate,[3]; metabolite pantothenate,-0.1253
same,Log2(fold change) phenylalanine,[3]; metabolite phenylalanine,-0.1188
same,Log2(fold change) phenylpyruvate,[3]; metabolite phenylpyruvate,0.0000
same,Log2(fold change) phosphoenolpyruvate,[3]; metabolite phosphoenolpyruvate,0.1409
same,Log2(fold change) prephenate,[3]; metabolite prephenate,0.0000
same,Log2(fold change) proline,[3]; metabolite proline,-0.1490
same,Log2(fold change) pyridoxine,[3]; metabolite pyridoxine,-0.1465
same,Log2(fold change) pyruvate,[3]; metabolite pyruvate,-0.2297
same,Log2(fold change) riboflavin,[3]; metabolite riboflavin,0.0675
same,Log2(fold change) ribose,[3]; metabolite ribose,0.0000
same,Log2(fold change) ribose-phosphate,[3]; metabolite ribose-phosphate,-0.1362
same,Log2(fold change) ribulose-5-phosphate,[3]; metabolite ribulose-5-phosphate,-0.0392
same,Log2(fold change) serine,[3]; metabolite serine,0.0266
same,Log2(fold change) sn-glycerol-3-phosphate,[3]; metabolite sn-glycerol-3-phosphate,0.0600
same,Log2(fold change) succinate/Methylmalonic acid,[3]; metabolite succinate/Methylmalonic acid,0.0813
same,Log2(fold change) succinyl-CoA/methylmalonyl-CoA,[3]; metabolite succinyl-CoA/methylmalonyl-CoA,0.0000
same,Log2(fold change) taurine,[3]; metabolite taurine,0.4424
same,Log2(fold change) thiamine,[3]; metabolite thiamine,-0.0999
same,Log2(fold change) threonine/homoserine,[3]; metabolite threonine/homoserine,-0.0376
same,Log2(fold change) thymidine,[3]; metabolite thymidine,0.0000
same,Log2(fold changes) thymine,"[3]; metabolite thymine, log2 fold change",0.0000
same,Log2(fold changes) trehalose-6-Phosphate,"[3]; metabolite trehalose-6-Phosphate, log2 fold change",0.0000
same,Log2(fold changes) tryptophan,"[3]; metabolite tryptophan, log2 fold change",-0.0757
same,Log2(fold changes) tyrosine,"[3]; metabolite tyrosine, log2 fold change",0.0866
same,Log2(fold changes) uridine,"[3]; metabolite uridine, log2 fold change",-0.4854
same,Ratio fil./std. (absorbance filtrate/standard),[4],0.69
same,solubility at 1.5 h,[5],100 to 500 µM
